Assay results from patent publication US6984499B2, “Method and apparatus for concurrently detecting pathogenic organisms and antimicrobial susceptibility” (IDEXX Laboratories, Inc., priority 1997, dated 2006).

How the values were obtained:
[1] = system: gram negative urinary pathogens (Escherichia coli, Klebsiella spp, Enterobacter spp., Proteus spp.); assay: AMO medium (amoxicillin) in urinary tract infection device; type: cell-based, feline and canine urine specimens
Experimental: The medium is formulated according to techniques well known to those skilled in the art. The medium comprises UTI media with amoxicillin at a concentration of 8 mg/liter.
A total of 303 feline and canine urine specimens were collected from the animals suspected of having urinary tract infection were tested with the “AMO” medium. A 50 μl aliquot of the urine specimen was added to 10 ml of sterile saline solution (0.85% NaCl solution). A 100 μl of the diluted urine specimens were added to the “AMO” medium in the urinary tract infection device; the device was then incubated at 35° C. for 24 hours.

[2] = system: gram negative urinary pathogens (Escherichia coli, Klebsiella spp, Enterobacter spp., Proteus spp.); assay: standard Kirby-Bauer antimicrobial susceptibility assay, amoxicillin; type: cell-based, feline and canine urine specimens; conditions: Total of 58
Experimental: (§1) For comparison a traditional microbiological culture, bacterial identification technique, and antimicrobial susceptibility test were performed. A portion of 1 μl urine specimen was streaked onto a blood agar plate; the plate was then incubated at 35° C. for 24–48 hours. […] The susceptibility of amoxicillin of the gram negative urinary pathogens (Escherichia coli, Klebsiella spp, Enterobacter supp., and Proteus spp.) Were performed by standard Kirby-Bauer antimicrobial susceptibility assay.

[3] = system: primary gram negative uropathogens; assay: five-well device (TVB, UTI, AMO, AMC, ENR wells), fluorescence, four urine samples; type: cell-based; conditions: Sample 2; incubation 18 hours
Excerpt: In a presently preferred embodiment, this invention comprises a device having a series of 5 test wells. Each well comprises a specific medium coupled with a fluorogenic enzyme substrate for the detection of target bacteria and their respective antibiotic resistance patterns. The wells produce a fluorescent signal when bacteria grow in them.
The wells were termed a total viable bacteria “TVB” well, a primary gram negative urinary tract infection organisms “UTI” well, and individual wells which contain an antimicrobial susceptibility media with an antibiotic amoxicillin “AMO”, clavulanic acid/amoxicillin (Clavamox®) “AMC”, or enrofloxacin (Baytril®) “ENR”.
The total viable bacteria “TVB” well, when it fluoresces, indicates the presence of bacteria in the urine sample. The “UTI” well fluoresces when the common Gram-negative uropathogens (E. coli, Klebsiella or Enterobacter spp., and P. mirabilis) are present in the urine sample. […]
For each device, after an incubation period of 18 hours, the wells were examined for the development of fluorescence and conclusions about the presence of primary urinary pathogens and their susceptibility to the antimicrobial agents employed were drawn.

[4] = system: Enterobacter cloacae ATCC 13047; assay: standard Muller Hinton broth (MHB) microdilution susceptibility; type: cell-based; conditions: E. cloacae
Experimental: (§2) The representative primary gram negative urinary pathogens including Escherichia coli ATCC 25922, Klebsiella pneumoniae, Enterobacter cloacae ATCC 13047, and Proteus mirabilis were used to determine the antimicrobial efficacy of cephalothin in CR 30 medium in reaction to the standard Muller Hinton microdilution antimicrobial susceptibility ((NCCLS Antimicrobial Susceptibility Testing/SC3, January, 1996). Cephalothin was prepared in both standard Muller Hinton broth (MHB) and CR30 medium (CR30M) at the following concentrations: 128, 64, 32, 16, 8, 4, 2, and 0 mg/liter. Bacterial inocula used for each level of inoculation were 1–5×10^4 cfu/100 μl. The assays were performed in microliter wells at 35° C. for 18 hours.
(§3) The bacteria are defined as “resistant” to cephalothin if the organism has an MIC of ≧32 μg/ml, as “intermediate resistant” if the MIC is 16 μg/ml, and as “susceptible” if the MIC is 8 μg/ml as determined by the standard Muller Hinton broth (Manual of Clinical Microbiology, 6th ed. 1995; ASM Press).

[5] = system: Escherichia coli ATCC 25922; assay: as above; type: cell-based; conditions: E. coli
Experimental: as §2, §3

Klebsiella pneumoniae [6] = assay: as above; type: cell-based; conditions: K. pneumoniae
Experimental: as §2, §3

Proteus mirabilis [7] = assay: as above; type: cell-based; conditions: P. mirabilis
Experimental: as §2, §3

[8] = system: Enterobacter cloacae ATCC 13047; assay: CR30 medium (CR30M) microdilution susceptibility; type: cell-based; conditions: E. cloacae
Experimental: (§4) The medium is formulated according to techniques well known to those skilled in the art. The medium comprises the uropathogen specific medium with 32 mg/liter of cephalothin.
as §2, §3

[9] = system: Escherichia coli ATCC 25922; assay: CR30 medium (CR30M) microdilution susceptibility; type: cell-based; conditions: E. coli
Experimental: as §4, §2, §3

Klebsiella pneumoniae [10] = assay: CR30 medium (CR30M) microdilution susceptibility; type: cell-based; conditions: K. pneumoniae
Experimental: as §4, §2, §3

Proteus mirabilis [11] = assay: CR30 medium (CR30M) microdilution susceptibility; type: cell-based; conditions: P. mirabilis
Experimental: as §4, §2, §3

[12] = system: gram negative urinary pathogens (Escherichia coli, Klebsiella spp, Enterobacter spp., Proteus spp.); assay: ENR medium (enrofloxacin) in urinary tract infection device; type: cell-based, feline and canine urine specimens
Experimental: The medium is formulated according to techniques well known to those skilled in the art. The media comprises UTI media with enrofloxacin (ENR) at a concentration of 2.0 mg/liter.
A total of 303 feline and canine urine specimens were collected from the animals suspected of having urinary tract infection were tested with the “ENR” medium. A 50 μl aliquot of the urine specimen was added to 10 ml of sterile saline solution (0.85% NaCl solution). A 100 μl of the diluted urine specimens was added to the “ENR” medium in the urinary tract infection device; the device was then incubated at 35° C. for 24 hours.

[13] = system: gram negative urinary pathogens (Escherichia coli, Klebsiella spp, Enterobacter spp., Proteus spp.); assay: standard Kirby-Bauer antimicrobial susceptibility assay, enrofloxacin; type: cell-based, feline and canine urine specimens; conditions: Total of 58
Experimental: as §1, with “enrofloxacin” for “amoxicillin”, “spp.,” for “supp.,”, “were” for “Were”

[14] = Susceptible by Kirby-Bauer Assay

CC1(C)S[C@@H]2[C@H](NC(=O)[C@H](N)c3ccc(O)cc3)C(=O)N2[C@H]1C(=O)O [Amoxicillin, amoxicillin] was tested, and the “number of specimens Resistant in AMO Medium” value ([1]; Resistant by Kirby-Bauer Assay) was 21, the “number of specimens Susceptible in AMO Medium” value ([1]; Resistant by Kirby-Bauer Assay) was 1 and the “number of specimens Resistant in AMO Medium” value [1, 14] was 1. The “number of specimens Susceptible in AMO Medium” value [1, 14] was 35, the “number of specimens Resistant in AMO Medium” value ([1]; Total of 58) was 22 and the “number of specimens Susceptible in AMO Medium” value ([1]; Total of 58) was 36. For the same compound, the “number of specimens Resistant by Kirby-Bauer Assay” value [2] was 22, the “number of specimens Susceptible by Kirby-Bauer Assay” value [2] was 36 and the “susceptibility of primary gram negative uropathogens to the antimicrobial agent” value [3] was “resistant”.
With CC(=O)OCC1=C(C(=O)O)N2C(=O)[C@@H](NC(=O)Cc3cccs3)[C@H]2SC1 [cephalothin] the “categorical susceptibility to cephalothin” value (“categorical susceptibility” below) [4] was “resistant”, the “categorical susceptibility” value [5] was “susceptible” and the “categorical susceptibility” value (Klebsiella pneumoniae [6]) was “susceptible”. The “categorical susceptibility” value (Proteus mirabilis [7]) was “susceptible”, the “categorical susceptibility” value [8] was “resistant” and the “categorical susceptibility” value [9] was “susceptible”. The “categorical susceptibility” value (Klebsiella pneumoniae [10]) was “susceptible” and the “categorical susceptibility” value (Proteus mirabilis [11]) was “susceptible”.
CCN1CCN(c2cc3c(cc2F)c(=O)c(C(=O)O)cn3C2CC2)CC1 [Enrofloxacin, enrofloxacin] was tested, and the “number of specimens Resistant in ENR Medium” value ([12]; Resistant by Kirby-Bauer Assay) was 5, the “number of specimens Susceptible in ENR Medium” value ([12]; Resistant by Kirby-Bauer Assay) was 1 and the “number of specimens Resistant in ENR Medium” value [12, 14] was 2. The “number of specimens Susceptible in ENR Medium” value [12, 14] was 50, the “number of specimens Resistant in ENR Medium” value ([12]; Total of 58) was 7 and the “number of specimens Susceptible in ENR Medium” value ([12]; Total of 58) was 51. The “number of specimens Resistant by Kirby-Bauer Assay” value [13] was 6, the “number of specimens Susceptible by Kirby-Bauer Assay” value [13] was 52 and the “susceptibility of primary gram negative uropathogens to the antimicrobial agent” value [3] was “susceptible”.
